Like-named read-outs stand apart in the source and are kept apart here.
Legend:
[1] = Pharmacokinetic study in mice; type: in vivo; conditions: male mice, plasma
Protocol: Six male mice weighing 20-30 g were randomly divided into two groups. One group received an intravenous (IV) administration of the test compound at a dose of 2 mg/kg, while the other group received an oral (gavage) administration at a dose of 10 mg/kg. Blood samples were collected at 0.083, 0.25, 0.5, 1, 2, 4, 6, 8, and 24 hours post-administration. Plasma samples were processed and analyzed using LC/MS/MS in MRM)mode. A validated standard curve was established for the quantitative determination of the target compound in plasma, enabling the generation of plasma drug concentration-time profiles. Pharmacokinetic parameters were calculated using WinNonlin software with a non-compartmental model.

[2] = biological target: T1, IRAK4 protein (Homo sapiens, UniProt Q9NWZ3); experiment: IRAK4 Degradation Assay in THP-1 Cells (Western Blot); type: cell-based; parameters: endogenous in cells; host or cells: THP-1 cells
T1 sequence (Q9NWZ3 1-460): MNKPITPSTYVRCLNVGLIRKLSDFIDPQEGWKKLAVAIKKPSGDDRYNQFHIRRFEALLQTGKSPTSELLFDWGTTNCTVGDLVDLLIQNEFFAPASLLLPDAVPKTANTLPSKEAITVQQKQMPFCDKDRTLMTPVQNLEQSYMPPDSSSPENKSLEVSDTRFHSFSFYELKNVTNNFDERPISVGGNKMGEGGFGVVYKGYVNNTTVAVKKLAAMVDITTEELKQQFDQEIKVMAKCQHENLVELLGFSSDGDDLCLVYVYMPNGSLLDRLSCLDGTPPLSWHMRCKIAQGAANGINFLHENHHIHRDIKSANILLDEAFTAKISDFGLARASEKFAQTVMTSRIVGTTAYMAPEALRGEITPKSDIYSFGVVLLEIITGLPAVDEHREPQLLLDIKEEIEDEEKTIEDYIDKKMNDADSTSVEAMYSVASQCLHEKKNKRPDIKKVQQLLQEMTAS
Protocol: In a 6-well cell culture plate, an appropriate number of THP-1 cells were seeded. The plate was placed in a 5% CO2 incubator at 37°C for overnight culture. Then, the test compound's dimethyl sulfoxide solution was added, with the final concentration ranging from 0.0128 to 1000 nM. After continuous culture for 24 hours, the culture medium was removed, and the cells were collected in a 1.5 mL centrifuge tube. After adding lysis buffer and grinding thoroughly, the mixture was placed on ice for 30 minutes. It was then centrifuged at 15,000 xg and 4°C for 20 minutes. The supernatant was taken, and the level of IRAK4 protein was detected by Western Blot.

[3] = mouse, iv, i.v. (2 mg/kg), read-out: AUC0-t
[4] = mouse, po, p.o. (10 mg/kg), read-out: AUC0-t
[5] = mouse, po, p.o. (10 mg/kg), read-out: Cmax
[6] = THP-1 cells, 24 hours, 0.0128 to 1000 nM, IRAK4 protein level by Western Blot, read-out: DC50
[7] = THP-1 cells, 24 hours, 0.0128 to 1000 nM, IRAK4 protein level by Western Blot, read-out: Dmax%
[8] = THP-1, THP-1 cells, 24 hours, 0.0128 to 1000 nM, IRAK4 protein level by Western Blot, read-out: Dmax%

SMILES | half-life ([1]; mouse, iv, i.v. (2 mg/kg)) [min] | AUC(0-t) [1, 3] [ng·h/mL] | Tmax ([1]; mouse, po, p.o. (10 mg/kg)) [h] | half-life ([1]; mouse, po, p.o. (10 mg/kg)) [min] | AUC(0-t) [1, 4] [ng·h/mL] | Cmax [1, 5] [ng/mL] | DC50 [2, 6] [nM] | Dmax [2, 7] [%] | AUC(0-t) ([1]; i.v. (2 mg/kg)) [ng·h/mL] | T1/2 ([1]; i.v. (2 mg/kg)) [h] | AUC(0-t) ([1]; p.o. (10 mg/kg)) [ng·h/mL] | Cmax ([1]; p.o. (10 mg/kg)) [ng/mL] | T1/2 ([1]; p.o. (10 mg/kg)) [h] | Dmax [2, 8] [%] | DC50 [2] [nM] | Dmax ([2]; THP-1) [%]
Cc1cnc2c(C(=O)Nc3cc4c(cc3N3CCC(CO)CC3)OC3(CCN(C[C@H]5CC[C@H](OCC#Cc6cccc7c6n(C)c(=O)n7C6CCC(=O)NC6=O)CC5)CC3)C4)cnn2c1 (stereo partly drawn) [Compound 36] | 170 | 8730 | 2 | 193 | 18000 | 1740 | 2.27 | 86.5 |  |  |  |  |  |  |  | 
Cn1c(=O)n(C2CCC(=O)NC2=O)c2cccc(CN3CCC(CCN4CCC5(CC4)Oc4cc(NC(=O)c6cnn7cccnc67)c(N6CCC(CO)CC6)cc4O5)CC3)c21 (stereo not drawn) [Compound 15] | 1330 | 14400 | 6 | 1420 | 23200 | 1320 | 2.22 | 86 |  |  |  |  |  |  |  | 
Cn1c(=O)n(C2CCC(=O)NC2=O)c2cccc(C#CCO[C@H]3CC[C@H](CN4CCC5(CC4)Cc4cc(NC(=O)c6cnn7cc(F)cnc67)c(N6CCC(CO)CC6)cc4O5)CC3)c21 (stereo partly drawn) [Compound 38] |  |  | 4 |  |  |  | 2.81 | 88.8 | 11671 | 4.07 | 26962 | 2277 | 4.27 |  |  | 
Cn1c(=O)n(C2CCC(=O)NC2=O)c2cccc(C#CCO[C@H]3CC[C@H](CN4CCC5(CC4)Cc4cc(NC(=O)c6cnn7cccnc67)c(N6CCC(O)CC6)cc4O5)CC3)c21 (stereo partly drawn) [Compound 46] |  |  | 4 |  |  |  | 1.37 | 87 | 14148 | 2.76 | 42143 | 3493 | 3.82 |  |  | 
Cn1c(=O)n(C2CCC(=O)NC2=O)c2cccc(C#CCO[C@H]3CC[C@H](CN4CCC5(CC4)Cc4cc(NC(=O)c6coc7cccnc67)c(N6CCC(CO)CC6)cc4O5)CC3)c21 (stereo partly drawn) [Compound 35] | 227 |  | 2 |  |  | 2070 | 4.69 | 93.4 | 10556 |  | 23388 |  | 4.34 |  |  | 
Cn1c(=O)n(C2CCC(=O)NC2=O)c2cccc(C#CCO[C@H]3CC[C@@H](CN4CCC5(CC4)Cc4cc(NC(=O)c6cnn7cccnc67)c(N6CCC(CO)CC6)cc4O5)CC3)c21 (relative stereo) [Compound 55] | 180 | 6190 | 1 | 202 | 10000 | 1120 | 3.44 |  |  |  |  |  |  | 89.3 |  | 
Cn1c(=O)n(C2CCC(=O)NC2=O)c2cccc(C#CCO[C@H]3CC[C@H](CN4CCC5(CC4)Cc4cc(NC(=O)c6cnn7cccnc67)c(N6CCC(C(C)(C)O)CC6)cc4O5)CC3)c21 (stereo partly drawn) [Compound 41] | 128 | 5120 | 2 | 157 | 21200 | 2990 | 3.86 | 90.5 |  |  |  |  |  |  |  | 
Cn1nc(N2CCC(=O)NC2=O)c2cc(F)c(N3CCC(O)(CC(=O)N4CCC5(CC4)Cc4cc(NC(=O)c6cnn7cccnc67)c(N6CCC(CO)CC6)cc4O5)CC3)cc21 [Example 77] | 281 | 12900 | 1 | 231 | 38200 | 4830 | 1.28 |  |  |  |  |  |  | 85.7 |  | 
Cn1c(=O)n(C2CCC(=O)NC2=O)c2cccc(C#CCO[C@H]3CC[C@H](CN4CCC5(CC4)Cc4cc(NC(=O)c6cnn7cc(Cl)cnc67)c(N6CCC(CO)CC6)cc4O5)CC3)c21 (stereo partly drawn) [Compound 37] | 202 | 12100 | 4 | 236 | 29300 | 2150 | 3.32 | 90.5 |  |  |  |  |  |  |  | 
Cn1c(=O)n(C2CCC(=O)NC2=O)c2cccc(N3CCC(CN4CCC5(CC4)Cc4cc(NC(=O)c6cnn7cccnc67)c(N6CCC(CO)CC6)cc4O5)CC3)c21 (stereo not drawn) [Example 78] | 1980 | 32700 | 1 | 395 | 44900 | 2600 | 0.86 |  |  |  |  |  |  | 94 |  | 
Cn1c(=O)n(C2CCC(=O)NC2=O)c2cccc(N3CCN(CCN4CCC5(CC4)Cc4cc(NC(=O)c6cnn7cccnc67)c(N6CCC(CO)CC6)cc4O5)CC3)c21 (stereo not drawn) [Example 95] | 130 | 4570 | 2 | 167 | 11100 | 1210 |  |  |  |  |  |  |  |  | 0.89 | 95
Cn1c(=O)n(C2CCC(=O)NC2=O)c2cccc(N3CCN(C(=O)CN4CCC5(CC4)Cc4cc(NC(=O)c6cnn7cccnc67)c(N6CCC(CO)CC6)cc4O5)CC3)c21 (stereo not drawn) [Compound 70] | 186 | 7880 | 2 | 137 | 6680 | 870 |  |  |  |  |  |  |  |  | 1.1 | 91.2
Cn1c(=O)n(C2CCC(=O)NC2=O)c2cccc(C#CCO[C@H]3CC[C@H](CN4CCC5(CC4)Cc4cc(NC(=O)c6cnn7cccnc67)c(N6CCC(CO)CC6)cc4O5)CC3)c21 (relative stereo) [Compound 34] |  |  | 2 |  |  |  | 2.2 |  | 7155 | 2.69 | 14793 | 1540 | 3.70 | 90.6 |  | 
Cn1c(=O)n(C2CCC(=O)NC2=O)c2cccc(C#CCO[C@H]3CC[C@H](CN4CCC5(CC4)Cc4cc(NC(=O)c6cnc7cccnn67)c(N6CCC(CO)CC6)cc4O5)CC3)c21 (stereo partly drawn) [Compound 45] | 121 |  | 2 |  |  |  | 1.52 | 87.4 | 3192 |  | 7391 | 1190 | 4.40 |  |  | 
Cn1c(=O)n(C2CCC(=O)NC2=O)c2cccc(C#CCO[C@H]3CC[C@H](CN4CCC5(Cc6cc(NC(=O)c7cnn8cccnc78)c(N7CCC(CO)CC7)cc6O5)C4)CC3)c21 (stereo partly drawn) [Compound 51] |  |  |  |  |  |  | 2 | 83.9 |  |  |  |  |  |  |  | 
